# Columns and labels:
# Format in all cases: cell-based, Candida albicans
# [1] = tested on: C. albicans; test: Filamentation assay (hyphal growth, phase-contrast images); conditions: 0.4%, RPMI, 37° C., 8 h, vs monosaccharide pool and medium alone
# Experimental: Hyphal growth of C. albicans was induced by diluting cells to OD600=0.05 into prewarmed hyphae-inducing medium as indicated and incubating at 37° C. (200 rpm) in a glass-bottom, 96-well plate. Cells were grown in hyphae-inducing medium for several hours, as described in BRIEF DESCRIPTION OF THE DRAWINGS. Images were acquired with a confocal laser scanning microscope (Zeiss, Oberkochen, Germany; LSM 800) equipped with a ×63/1.4 NA oil-immersion or a 25× objective. Images were analyzed using Zeiss ZEN v.2.1. Representative micrographs are shown.
# [2] = tested on: C. albicans SC5314; test: RT-qPCR analysis of C. albicans gene expression; conditions: for suppression of filamentation-associated genes: broader range of genes, six synthetic glycans, FIG. 9E; for effect of the added sugar on the gene regulatory activity (YWP1, ECE1) of the unmodified Core: compared with Core 1 or Core 2; for ECE1 transcription / YWP1 transcription: modified Core structures, FIGS. 9C-9D; for YWP1 expression: 0.1% (w/v) synthetic glycan
# Experimental: For RNA extraction from C. albicans grown in the presence or absence of mucin glycans, 100 μL of RPMI or 0.1% w/v MUC5AC glycans in RPMI were inoculated with a 1:50 dilution of an overnight culture of strain SC5314 and incubated at 37° C. for the time indicated. Total RNA was extracted with the MasterPure RNA Purification Kit (Lucigen, Middleton, WI) and residual DNA was removed using the Turbo DNA-free kit (Ambion, Austin, TX). The integrity of the total RNA was assessed using an Agilent 2100 Bioanalyzer (Agilent Technologies, Santa Clara, CA). rRNA was removed using the Ribo-Zero® rRNA Removal Kit (Yeast; Epicentre).
# A list of the primers used in this study is provided in Table 1. qPCR with reverse transcription (RT-qPCR) was performed using a two-step method. First-strand cDNA was synthesized from total RNA using the […] First Strand cDNA Synthesis kit (New England Biolabs, Ipswich, MA). The cDNA was used as template for RT-qPCR using a SYBR PowerUp Master Mix kit (Applied Biosystems, Life Technologies) on a Roche LightCycler 480 real-time PCR system. The ACT1 and 18S rRNA genes were used as endogenous controls as specified. […] Changes in gene expression were calculated based on mean change in qPCR cycle threshold (ΔCt) using the ΔΔCt method (fold change=[…]).
# [3] = tested on: C. albicans; test: C. albicans growth (growth curves); conditions: 0.1% (w/v)
# Experimental: Strains were maintained on yeast extract peptone dextrose (YPD) agar (2% Bacto peptone, 2% glucose, 1% yeast extract, 2% agar) and grown at 30° C. Single colonies were inoculated into YPD broth and grown with shaking overnight at 30° C. prior to each experiment. Experiments were performed with Gibco RPMI 1640 medium (Life Technologies, Carlsbad, CA; #31800-089) buffered with 165 mM 3-(N-morpholino)propanesulfonic acid (MOPS) and supplemented with 0.2% NaHCO3 and 2% glucose; YPD medium with 10% fetal bovine serum; GlcNAc medium (0.5% N-acetylglucosamine, 0.5% peptone, 0.3% KH2PO4); Spider medium (1% nutrient broth, 1% D-mannitol, 2 g K2HPO4, 50 mg/mL arginine, 10 mg/mL histidine, and 50 mg/mL tryptophan); or Lee's medium^45. Growth curves were performed in Synthetic Defined (SD)+0.004% (w/v) L-Arginine+0.0025% (w/v) L-Leucine media with 2% glucose.
# [4] = tested on: C. albicans SC5314; test: RT-qPCR analysis of C. albicans gene expression; conditions: for ECE1 expression: 0.1% and 0.4%; for YWP1 expression on concentration increase: increase to 0.4% (w/v)
SMILES,"filamentation, synthetic glycan structures [1]",suppression of filamentation-associated genes [2],"effect of the added sugar on the gene regulatory activity (YWP1, ECE1) of the unmodified Core [2]",ECE1 transcription [2],YWP1 transcription [2],YWP1 expression [2],"toxic effects, as measured by C. albicans growth [3]",ECE1 expression [4],YWP1 expression on concentration increase [4]
"CO[C@H]1O[C@H](CO[C@@H]2O[C@H](CO)[C@@H](O[C@@H]3O[C@H](CO)[C@H](O)[C@H](O)[C@H]3O)[C@H](O)[C@H]2NC(C)=O)[C@H](O)[C@H](O[C@@H]2O[C@H](CO)[C@H](O)[C@H](O)[C@H]2O)[C@H]1NC(C)=O [Core 2+galactose, Methyl β-D-galactopyranosyl-(1→4)-2-acetamido-2-deoxy-β-D-glucopyranosyl-(1→6)-[β-D-galactopyranosyl-(1→3)]-2-acetamido-2-deoxy-α-D-galactopyranoside]",most potently blocked filamentation,strongest suppression,did not significantly alter Core 2 activity,downregulating ECE1,transcriptionally upregulated YWP1,–,–,–,–
"CO[C@H]1O[C@H](CO[C@@H]2O[C@H](CO)[C@@H](O)[C@H](O)[C@H]2NC(C)=O)[C@H](O)[C@H](O[C@@H]2O[C@H](CO)[C@H](O)[C@H](O)[C@H]2O)[C@H]1NC(C)=O [Core 2, Methyl β-D-galactopyranosyl-(1→3)-[2-acetamido-2-deoxy-β-D-glucopyranosyl-(1→6)]-2-acetamido-2-deoxy-α-D-galactopyranoside]",–,–,–,–,–,upregulated YWP1 expression at 0.1% (w/v) to a similar degree as the intact mucin pool,Neither Core 1 nor Core 2 showed toxic effects,"suppressed ECE1 expression at 0.1% and 0.4%, albeit less strongly than the mucin glycan pool",did not significantly alter YWP1 expression
"CO[C@H]1O[C@H](CO)[C@H](O)[C@H](O[C@@H]2O[C@H](CO)[C@H](O)[C@H](O[C@]3(C(=O)[O-])C[C@H](O)[C@@H](NC(C)=O)[C@H]([C@H](O)[C@H](O)CO)O3)[C@H]2O)[C@H]1NC(C)=O.[Na+] [Core 1+sialic acid, Methyl 3-O-(sodium 5-acetamido-3,5-dideoxy-D-glycero-α-D-galacto-2-nonulopyranosylonate)-β-D-galactopyranosyl-(1→3)-2-acetamido-2-deoxy-α-D-galactopyranoside]",less effective at suppressing filamentation,weakest effect,dampened the gene regulatory response of Core 1,downregulating ECE1,transcriptionally upregulated YWP1,–,–,–,–
"CO[C@H]1O[C@H](CO[C@@H]2O[C@H](CO)[C@@H](O)[C@H](O)[C@H]2NC(C)=O)[C@H](O)[C@H](O[C@@H]2O[C@H](CO)[C@H](O)[C@H](O)[C@H]2O[C@@H]2O[C@@H](C)[C@@H](O)[C@@H](O)[C@@H]2O)[C@H]1NC(C)=O [Core 2+fucose, Methyl α-L-fucopyranosyl-(1→2)-β-D-galactopyranosyl-(1→3)-[2-acetamido-2-deoxy-β-D-glucopyranosyl-(1→6)]-2-acetamido-2-deoxy-α-D-galactopyranoside]",–,–,did not measurably alter,downregulating ECE1,transcriptionally upregulated YWP1,–,–,–,–
"CO[C@H]1O[C@H](CO)[C@H](O)[C@H](O[C@@H]2O[C@H](CO)[C@H](O)[C@H](O)[C@H]2O)[C@H]1NC(C)=O [Core 1, Methyl β-D-galactopyranosyl-(1→3)-2-acetamido-2-deoxy-α-D-galactopyranoside]",most potently blocked filamentation,strongest suppression,–,–,–,upregulated YWP1 expression at 0.1% (w/v) to a similar degree as the intact mucin pool,Neither Core 1 nor Core 2 showed toxic effects,"suppressed ECE1 expression at 0.1% and 0.4%, albeit less strongly than the mucin glycan pool",did not significantly alter YWP1 expression
"CO[C@H]1O[C@H](CO)[C@H](O)[C@H](O[C@@H]2O[C@H](CO)[C@H](O)[C@H](O)[C@H]2O[C@@H]2O[C@@H](C)[C@@H](O)[C@@H](O)[C@@H]2O)[C@H]1NC(C)=O [Core 1+fucose, Methyl α-L-fucopyranosyl-(1→2)-β-D-galactopyranosyl-(1→3)-2-acetamido-2-deoxy-α-D-galactopyranoside]",most potently blocked filamentation,strongest suppression,did not measurably alter,downregulating ECE1,transcriptionally upregulated YWP1,–,–,–,–
